Results: ChEMBL document CHEMBL1131533, “Development of a three-dimensional CysLT1 (LTD4) antagonist model with an incorporated amino acid residue from the receptor” (J Med Chem, 1998)

Target: T1, Cysteinyl leukotriene receptor 1 (Cavia porcellus, UniProt Q2NNR5)
T1 sequence (Q2NNR5 whole entry): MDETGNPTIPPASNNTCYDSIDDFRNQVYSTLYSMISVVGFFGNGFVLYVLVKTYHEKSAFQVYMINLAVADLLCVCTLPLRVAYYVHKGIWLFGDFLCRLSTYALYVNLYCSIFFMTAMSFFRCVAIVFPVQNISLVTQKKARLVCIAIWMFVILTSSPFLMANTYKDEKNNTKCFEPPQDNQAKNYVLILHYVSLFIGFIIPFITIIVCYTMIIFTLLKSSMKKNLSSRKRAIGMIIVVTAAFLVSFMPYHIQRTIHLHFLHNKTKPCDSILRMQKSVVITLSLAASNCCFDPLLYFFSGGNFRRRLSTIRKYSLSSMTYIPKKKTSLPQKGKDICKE
Assay: Binding affinity towards Cysteinyl leukotriene D4 receptor (cysLT1) was measured by the displacement of [3H]LTD4 radioligand

| Ki [nM] | IC50 [nM] | SMILES |
| --- | --- | --- |
| 6.4 | – | CCC(CC)(CC(=O)Nc1cccc(/C=C/c2nc(C3CCC3)cs2)c1)C(=O)O |
| – | 17 | O=C(O)c1cccc2c(=O)cc(-c3cccc(/C=C/c4ccc5ccccc5n4)c3)oc12 |
| 1.1 | – | O=C(Nc1cccc2c(=O)cc(-c3nn[nH]n3)oc12)c1ccc(OCc2ccc3ccccc3n2)cc1 |
| 3 | – | O=c1cc(-c2nnn[nH]2)oc2cc(OCc3cccc(OCc4ccc5ccccc5n4)c3)ccc12 |
| 2.5 | – | O=c1cc(-c2nnn[nH]2)oc2cc(/C=C/c3cccc(OCc4ccc5ccccc5n4)c3)ccc12 |
